In paper PMC10673995, “Discovery of a novel cardiac-specific myosin modulator using artificial intelligence-based virtual screening” (Nature Communications, 2023):
Several values for one entry are separate records, joined by “and”; a condition that tells them apart may be missing. Equal values may be shown once. Read-outs that look alike come from different tables or passages of the source.

Columns and labels:
[1] = test system: orientation of the RLC-region of myosin in demembranated trabeculae; assay: Polarized fluorescence of BSR-cRLC-E in demembranated trabeculae (order parameter <P2>); parameters: species or system rat (Rattus norvegicus)
Text: In a subset of trabeculae, we replaced the endogenous myosin regulatory light chain (RLC) with a recombinant cardiac RLC crosslinked to a bifunctional sulforhodamine (BSR) along its E-helix (BSR-cRLC-E)[39],[40]. This allowed us to determine the orientation of the RLC-region of myosin in demembranated trabeculae using polarized fluorescence (Fig. 4b; Supplementary Table 2). […] In contrast, F10 increased <P2> for the E-helix probe, under both relaxing and activating conditions, and abolished the orientation change in the myosin heads associated with Ca^2+-activation of the myofilaments. […] As a step towards elucidating the molecular mechanism behind F10’s stabilizing effect on the myosin head OFF conformation, we measured the affinity of isolated bovine β-cardiac myosin S1 in the presence of various nucleotides and F10 for the myosin S2 tail domain using Microscale Thermophoresis (Fig. S4).
BSR-cRLCs were exchanged into demembranated trabeculae by extraction in CDTA-rigor solution (composition in mmol L^−1: 5 CDTA, 50 KCl, 40 Tris-HCl pH 8.4, 0.1% (v/v) Triton X-100) for 30 min followed by reconstitution with 40 μmol L^−1 BSR-cRLC in relaxing solution (composition in mmol L^−1: 25 Imidazole, 15 Na2Creatine phosphate (Na2CrP), 78.4 KPropionate (KPr), 5.65 Na2ATP, 6.8 MgCl2, 10 K2EGTA, 1 DTT, pH 7.1) for 1 h, replacing ~50% of the endogenous cRLC[40],[64].
Composition of experimental solutions and activation protocols were identical to those described previously for fluorescence polarization experiments. Fluorescence emission from BSR-cRLCs in trabeculae were collected by a 0.25 N.A. objective using an excitation light beam in line with the emission path. […] The fluorescence emission was separated into parallel and perpendicular components by polarizing beam splitters, and its intensity measured by two photomultipliers, allowing determination of the order parameter <P2> that describes the dipole orientations in the trabeculae. […]

[2] = biological target: bovine β-cardiac myosin S1 / myosin S2 tail domain (Bos taurus, UniProt Q9BE39)
Procedure: In a subset of trabeculae, we replaced the endogenous myosin regulatory light chain (RLC) with a recombinant cardiac RLC crosslinked to a bifunctional sulforhodamine (BSR) along its E-helix (BSR-cRLC-E)[39],[40]. This allowed us to determine the orientation of the RLC-region of myosin in demembranated trabeculae using polarized fluorescence (Fig. 4b; Supplementary Table 2).
Microscale thermophoresis (MST) experiments were performed as described previously. Briefly, MST experiments were performed on a Monolith NT.115 instrument (NanoTemper) in interaction buffer containing 20 mmol L^−1 Mops, pH 7, 1 mmol L^−1 MgCl2, 50 mmol L^−1 KCl, 1 mmol L^−1 DTT, and 0.05% (v/v) Tween-20. […] All proteins were either gel-filtered into and/or extensively dialyzed against interaction buffer. Titration experiments were performed with a fixed concentration of 100 nmol L^−1 of Alexa647-labeled proteins in premium capillaries.

cyclic GMP-AMP synthase = test system: cyclic GMP-AMP synthase; parameters: method as in PubChem; conditions: ref PubChem; cited from earlier work

bovine β-cardiac myosin S1 / myosin S2 tail domain, sequence (Q9BE39 85-778 limits assumed): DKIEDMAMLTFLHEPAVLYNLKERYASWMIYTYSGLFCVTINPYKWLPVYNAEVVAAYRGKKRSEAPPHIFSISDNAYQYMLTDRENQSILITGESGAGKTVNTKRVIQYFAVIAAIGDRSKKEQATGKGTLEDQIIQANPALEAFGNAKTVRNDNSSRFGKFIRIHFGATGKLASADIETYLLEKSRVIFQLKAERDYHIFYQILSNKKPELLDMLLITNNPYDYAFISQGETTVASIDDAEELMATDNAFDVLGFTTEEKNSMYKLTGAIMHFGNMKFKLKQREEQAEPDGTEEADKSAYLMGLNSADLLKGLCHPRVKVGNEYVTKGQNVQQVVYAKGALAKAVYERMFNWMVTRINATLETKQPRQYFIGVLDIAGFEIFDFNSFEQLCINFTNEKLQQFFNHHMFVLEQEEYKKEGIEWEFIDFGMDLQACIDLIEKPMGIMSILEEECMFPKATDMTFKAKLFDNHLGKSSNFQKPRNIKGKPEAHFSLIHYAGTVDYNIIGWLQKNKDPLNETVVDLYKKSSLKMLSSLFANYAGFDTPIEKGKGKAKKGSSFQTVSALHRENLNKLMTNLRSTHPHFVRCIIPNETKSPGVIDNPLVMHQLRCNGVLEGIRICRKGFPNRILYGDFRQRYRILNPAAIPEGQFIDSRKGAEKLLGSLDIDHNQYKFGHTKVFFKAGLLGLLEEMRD
bovine β-cardiac myosin S1 / myosin S2 tail domain, sequence (P85100 whole entry partner, the tested form may be a part): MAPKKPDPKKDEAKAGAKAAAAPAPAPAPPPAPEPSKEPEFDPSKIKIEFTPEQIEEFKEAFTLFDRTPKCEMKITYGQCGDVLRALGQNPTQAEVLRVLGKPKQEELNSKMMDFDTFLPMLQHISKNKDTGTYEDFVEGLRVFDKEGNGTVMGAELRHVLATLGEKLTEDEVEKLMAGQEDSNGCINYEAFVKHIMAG

CCc1cc2c(=O)n(NC(=S)NC(C)C)cnc2s1 [F10]
order parameter <P2>max ([1]; full Ca^2+ activation pCa 4.5, 20 μmol L^−1 F10, control 0.078 ± 0.008): 0.160 and 0.235 and 0.225
<P2>max ([1]; individual replicates): 0.160 and 0.235 and 0.225
<P2>min ([1]; individual replicates): 0.178 and 0.208 and 0.194
Normalized MST binding S1-S2 ([2]; 1 mmol L-1 ADP.AlF4, S2D 0.0488): 0.03566
Normalized MST binding S1-S2 ([2]; 1 mmol L-1 ADP.AlF4, S2D 0.0977): 0.0163
Normalized MST binding S1-S2 ([2]; 1 mmol L-1 ADP.AlF4, S2D 0.3906): 0.009201
Normalized MST binding S1-S2 ([2]; 1 mmol L-1 ADP.AlF4, S2D 0.7813): 0.03149
Normalized MST binding S1-S2 ([2]; 1 mmol L-1 ADP.AlF4, S2D 1.5625): 0.0885
Normalized MST binding S1-S2 ([2]; 1 mmol L-1 ADP.AlF4, S2D 3.125): 0.1616
Normalized MST binding S1-S2 ([2]; 1 mmol L-1 ADP.AlF4, S2D 6.25): 0.3206
Normalized MST binding S1-S2 ([2]; 1 mmol L-1 ADP.AlF4, S2D 12.5): 0.4612
Normalized MST binding S1-S2 ([2]; 1 mmol L-1 ADP.AlF4, S2D 25): 0.6248
Normalized MST binding S1-S2 ([2]; 1 mmol L-1 ADP.AlF4, S2D 50): 0.7947
Normalized MST binding S1-S2 ([2]; 1 mmol L-1 ADP.AlF4, S2D 100): 0.8606
Normalized MST binding S1-S2 ([2]; 1 mmol L-1 ADP, S2D 0.0488): 0.01363
Normalized MST binding S1-S2 ([2]; 1 mmol L-1 ADP, S2D 0.0977): 0.01186
Normalized MST binding S1-S2 ([2]; 1 mmol L-1 ADP, S2D 0.1953): 0.01368
Normalized MST binding S1-S2 ([2]; 1 mmol L-1 ADP, S2D 0.3906): 0.0116
Normalized MST binding S1-S2 ([2]; 1 mmol L-1 ADP, S2D 0.7813): 0.04036
Normalized MST binding S1-S2 ([2]; 1 mmol L-1 ADP, S2D 1.5625): 0.07905
Normalized MST binding S1-S2 ([2]; 1 mmol L-1 ADP, S2D 3.125): 0.1319
Normalized MST binding S1-S2 ([2]; 1 mmol L-1 ADP, S2D 6.25): 0.2708
Normalized MST binding S1-S2 ([2]; 1 mmol L-1 ADP, S2D 12.5): 0.4119
Normalized MST binding S1-S2 ([2]; 1 mmol L-1 ADP, S2D 25): 0.5835
Normalized MST binding S1-S2 ([2]; 1 mmol L-1 ADP, S2D 50): 0.7506
Normalized MST binding S1-S2 ([2]; 1 mmol L-1 ADP, S2D 100): 0.8408
Normalized MST binding S1-S2 ([2]; 1 mmol L-1 ATP, S2D 0.0488): 0.07487
Normalized MST binding S1-S2 ([2]; 1 mmol L-1 ATP, S2D 0.0977): 0.0005344
Normalized MST binding S1-S2 ([2]; 1 mmol L-1 ATP, S2D 0.1953): -0.01266
Normalized MST binding S1-S2 ([2]; 1 mmol L-1 ATP, S2D 0.3906): 0.02682
Normalized MST binding S1-S2 ([2]; 1 mmol L-1 ATP, S2D 0.7813): 0.008303
Normalized MST binding S1-S2 ([2]; 1 mmol L-1 ATP, S2D 1.5625): 0.06777
Normalized MST binding S1-S2 ([2]; 1 mmol L-1 ATP, S2D 3.125): 0.1347
Normalized MST binding S1-S2 ([2]; 1 mmol L-1 ATP, S2D 6.25): 0.2613
Normalized MST binding S1-S2 ([2]; 1 mmol L-1 ATP, S2D 12.5): 0.4278
Normalized MST binding S1-S2 ([2]; 1 mmol L-1 ATP, S2D 25): 0.5839
Normalized MST binding S1-S2 ([2]; 1 mmol L-1 ATP, S2D 50): 0.7582
Normalized MST binding S1-S2 ([2]; 1 mmol L-1 ATP, S2D 100): 0.8343
biological activity in primary screen (cyclic GMP-AMP synthase): without, however, any biological activity
